Data on one molecule can be found in patent US6949558B2, “Enhancement of taxane-based chemotherapy by a CDK1 antagonist” (Yale University, priority 2001, dated 2005).

For assay [1], the system named is survivin RNA in HeLa cells. Put plainly: Northern hybridization of survivin RNA in HeLa cells. The assay is classed as cell-based, human. Particulars: presence or absence of taxol.
Assay [2] has as its system survivin expression in HT2-19 cells. The assay can be described thus: Survivin expression by Western blotting in HT2-19 cells. In kind it is cell-based. Particulars: taxol 0.2 μM. The source says: Cell Cultures and Antibodies: Breast carcinoma MCF-7, prostate carcinoma PC3, and cervical carcinoma HeLa cells (American Type Culture Collection, Manassas, Va.) were maintained in culture according to the supplier's recommendations. HT2-19 cells with conditional inactivation of the p34^cdc2 gene were described previously (J. E. Itzhaki et al. (1997) Nat. Gen. 15: 258-265). In this cell line, removal of IPTG from the culture medium results in inactivation of the second p34^cdc2 allele (J. E. Itzhaki et al. (1997) Nat. Gen. 15: 258-265). For spindle checkpoint activation, the various cell types were treated with taxol (0.2-2 μM, Sigma Chemical Co., St. Louis, Mo.), vincristine (100 nM, Sigma) or cisplatin (3 μM, Sigma) for 16 h at 37° C. For genetic ablation of p34^cdc2, HT2-19 cells were washed and cultivated in the absence of IPTG for 48-72 h before analysis of apoptosis (see below) or expression of survivin or p34^cdc2, by Western blotting. In some experiments, taxol (0.2 μM) was added to HT2-19 cells simultaneously with the withdrawal of IPTG, and cells were processed as described above. […] For viral transduction, HT2-19 cells in the absence of IPTG were infected with pAd-GFP or pAd-Survivin at multiplicity of infection (m.o.i.) of 50, and analyzed after a 48-72 h culture for changes in cell cycle progression and apoptosis. […]
In general terms: A western blot detects proteins with antibodies after separation by electrophoresis.

The next assay relates to MCF-7 cells. The assay can be described thus: Apoptosis by DNA content analysis and flow cytometry in MCF-7 cells. The assay is classed as cell-based, human. On the procedure:
Cervical carcinoma HeLa (functionally inactivated p53) cells or breast carcinoma MCF-7 (wild type p53) cells were plated at 50-60% confluency in C-6 wells. […]
After 4, 8, 16, and 32 hours of incubation, without removing taxol from the wells, purvalanol A was added at three increasing concentrations, 1, 10 and 20 uM (FIG. 1). A control was performed with addition of purvalanol A at the 0-h time point.
The cell populations were harvested at increasing time intervals from the 0-h time point or corresponding to the addition of purvalanol A. Apoptosis was analyzed by DNA content analysis and flow cytometry (DAPI staining).

A further assay relates to survivin promoter. Put plainly: Survivin promoter-luciferase reporter expression in MCF-7 cells. In kind it is cell-based, human. Particulars: taxol 2 μM, all time intervals examined. On the procedure:
Luciferase activity was determined after 0-24 h incubation at 37° C. on a Lumat luminometer (LB9510), and normalized to β-galactosidase activity used as an internal control.
Luciferase values were normalized to β-galactosidase expression.
On the technique in general: Reporter assays use an easily measured gene product as a stand-in for the process of interest.

Assay [3] has as its system survivin expression in MCF-7 cells. The assay can be described thus: Survivin expression by Western blotting in MCF-7 cells. In kind it is cell-based, human. Particulars: taxol 2 μM (FIG. 19A).
Where [4] appears, read: taxol 2 μM, adriamycin 100 nM, cis-platin 3 μM (Example 7).

In the case of `CC(=O)O[C@H]1C(=O)[C@@]2(C)[C@H]([C@H](OC(=O)c3ccccc3)[C@]3(O)C[C@H](OC(=O)[C@H](O)[C@@H](NC(=O)c4ccccc4)c4ccccc4)C(C)=C1C3(C)C)[C@]1(OC(C)=O)CO[C@@H]1C[C@@H]2O` [taxol, Paclitaxel], the “survivin RNA levels” value in assay [1] is “no significant changes in survivin RNA levels”. The survivin expression result in assay [2] (HT2-19 cells in the absence of IPTG (p34^cdc2 −/−)) is reported as “only a minimally detectable increase in survivin expression”. Further, the survivin levels result in assay [2] (IPTG+ HT2-19 cells (p34^cdc2 +/−)) was “increased survivin levels”. In the assay with MCF-7 cells (taxol 0.2 μM for 0 to 32 hours), the “apoptosis (hypodiploid cell fraction)” value is reported as “virtually no apoptosis” and the cell cycle arrest entry is reported as “uniform M arrest”. For the same molecule, in the assay with MCF-7 cells (setting [4]), the apoptosis entry is reported as “negligible apoptosis” and the cell cycle arrest entry is “G2/M arrest”. For the same molecule, the cell cycle arrest entry in the assay on MCF-7 cells (taxol 0.2-2 μM (Example 8)) is reported as “sustained (48-72 h) mitotic arrest”. Further, in the assay on survivin promoter, the “survivin gene expression (promoter-luciferase)” value is “significantly inhibited survivin gene expression”. For the same molecule, the “increased expression of survivin” value in assay [3] was 3-4 fold.
